# Measured values reported in patent US5834279A (priority 1997, dated 1998).
# Like-named read-outs stand apart in the source and are kept apart here.
# Legend:
# [1] = system: M. smegmatis; details: 200 μg/ml hydroxyurea; cited from earlier work
# [2] = molecular target: Salmonella ribonucleotide reductase (Salmonella typhimurium, UniProt P17424); details: cited from earlier work
# [3] = molecular target: T1, M. tuberculosis ribonucleotide reductase (Mycobacterium tuberculosis, UniProt P9WH75); test: biochemical; assay type: biochemical; details: for Maximal stimulated ribonucleotide reduction (Example 2): Example 2, written in present tense; for Maximal stimulated CDP reduction: equimolar R1 and R2, DTT as reductant
# Target sequence in this assay (P9WH75 3-725): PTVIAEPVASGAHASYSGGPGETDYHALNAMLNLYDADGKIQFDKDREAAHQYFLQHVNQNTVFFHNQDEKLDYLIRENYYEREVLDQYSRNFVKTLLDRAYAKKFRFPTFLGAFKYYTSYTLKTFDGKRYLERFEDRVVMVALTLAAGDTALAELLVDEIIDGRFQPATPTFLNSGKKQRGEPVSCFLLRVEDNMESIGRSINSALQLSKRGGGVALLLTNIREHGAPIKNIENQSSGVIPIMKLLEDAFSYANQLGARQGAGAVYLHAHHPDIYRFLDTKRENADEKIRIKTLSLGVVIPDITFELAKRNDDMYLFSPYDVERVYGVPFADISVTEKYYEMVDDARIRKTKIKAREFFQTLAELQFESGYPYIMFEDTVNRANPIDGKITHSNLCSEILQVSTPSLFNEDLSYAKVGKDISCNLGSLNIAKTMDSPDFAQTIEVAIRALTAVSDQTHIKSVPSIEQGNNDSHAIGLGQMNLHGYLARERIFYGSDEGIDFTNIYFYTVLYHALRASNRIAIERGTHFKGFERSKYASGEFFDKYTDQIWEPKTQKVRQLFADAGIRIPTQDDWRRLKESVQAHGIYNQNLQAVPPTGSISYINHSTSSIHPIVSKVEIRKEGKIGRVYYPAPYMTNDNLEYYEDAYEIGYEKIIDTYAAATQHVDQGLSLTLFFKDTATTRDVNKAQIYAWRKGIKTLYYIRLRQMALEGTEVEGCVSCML
# [4] = molecular target: T2, calf thymus ribonucleotide reductase (Bos taurus, UniProt E1BI58); details: cited from earlier work
# T2 construct: slightly higher than that found for calf thymus; host or cells: calf thymus
# [5] = molecular target: M. tuberculosis ribonucleotide reductase R1 (Mycobacterium tuberculosis, UniProt P9WH75); assay type: binding; details: 5 mM ATP
# [6] = molecular target: M. tuberculosis topoisomerase I (Mycobacterium tuberculosis, UniProt P9WG49); assay type: biochemical; details: 150 ng enzyme, 1.0 mM MgCl2
# M. tuberculosis topoisomerase I, sequence (P9WG49 2-896, added parts left off): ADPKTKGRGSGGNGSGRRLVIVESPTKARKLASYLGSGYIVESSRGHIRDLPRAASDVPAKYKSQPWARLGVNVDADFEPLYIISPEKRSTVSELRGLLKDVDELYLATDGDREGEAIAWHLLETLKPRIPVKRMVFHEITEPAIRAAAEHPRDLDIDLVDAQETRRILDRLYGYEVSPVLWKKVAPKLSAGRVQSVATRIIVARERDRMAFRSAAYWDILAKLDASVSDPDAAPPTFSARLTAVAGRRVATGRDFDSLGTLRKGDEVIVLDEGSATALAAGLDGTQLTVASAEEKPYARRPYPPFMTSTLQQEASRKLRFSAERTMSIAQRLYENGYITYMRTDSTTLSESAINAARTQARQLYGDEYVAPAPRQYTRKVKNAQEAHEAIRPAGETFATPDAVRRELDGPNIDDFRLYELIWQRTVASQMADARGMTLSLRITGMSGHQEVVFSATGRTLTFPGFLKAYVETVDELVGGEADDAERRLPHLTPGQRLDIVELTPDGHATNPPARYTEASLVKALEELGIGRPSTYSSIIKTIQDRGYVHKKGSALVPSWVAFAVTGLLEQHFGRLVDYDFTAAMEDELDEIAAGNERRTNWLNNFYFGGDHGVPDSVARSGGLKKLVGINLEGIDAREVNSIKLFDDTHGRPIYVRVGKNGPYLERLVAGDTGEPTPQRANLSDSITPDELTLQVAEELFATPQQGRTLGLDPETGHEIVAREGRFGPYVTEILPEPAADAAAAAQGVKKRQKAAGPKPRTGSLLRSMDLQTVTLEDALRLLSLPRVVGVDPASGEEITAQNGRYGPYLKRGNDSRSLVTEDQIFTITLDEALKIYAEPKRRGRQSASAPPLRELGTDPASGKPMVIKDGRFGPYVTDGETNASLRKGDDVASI
# [7] = molecular target: T1, M. tuberculosis ribonucleotide reductase; assay type: biochemical
# Target sequence in this assay (P9WH75 whole entry, looked up): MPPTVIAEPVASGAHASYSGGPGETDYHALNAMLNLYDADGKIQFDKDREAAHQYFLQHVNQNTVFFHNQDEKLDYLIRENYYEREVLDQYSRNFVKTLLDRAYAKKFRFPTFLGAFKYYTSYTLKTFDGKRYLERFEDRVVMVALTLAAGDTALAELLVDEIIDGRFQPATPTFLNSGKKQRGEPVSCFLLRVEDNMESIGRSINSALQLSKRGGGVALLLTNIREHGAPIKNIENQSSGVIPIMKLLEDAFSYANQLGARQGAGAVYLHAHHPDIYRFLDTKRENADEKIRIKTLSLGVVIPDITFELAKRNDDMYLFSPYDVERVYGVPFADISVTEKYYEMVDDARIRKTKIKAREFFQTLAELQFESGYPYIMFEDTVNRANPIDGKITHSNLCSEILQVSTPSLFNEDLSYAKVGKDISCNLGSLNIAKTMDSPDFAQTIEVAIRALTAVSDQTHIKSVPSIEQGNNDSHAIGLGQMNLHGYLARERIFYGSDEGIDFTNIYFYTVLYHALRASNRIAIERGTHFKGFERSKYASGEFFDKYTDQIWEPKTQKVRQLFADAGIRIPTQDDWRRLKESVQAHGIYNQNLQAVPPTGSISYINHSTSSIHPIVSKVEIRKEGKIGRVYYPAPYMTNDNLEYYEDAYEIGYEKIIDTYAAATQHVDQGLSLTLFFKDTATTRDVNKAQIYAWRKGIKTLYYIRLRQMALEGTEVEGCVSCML
# [8] = molecular target: T3, mammalian enzyme (ribonucleotide reductase) (Homo sapiens, UniProt P23921); details: cited from earlier work
# T3 sequence (P23921 1-792): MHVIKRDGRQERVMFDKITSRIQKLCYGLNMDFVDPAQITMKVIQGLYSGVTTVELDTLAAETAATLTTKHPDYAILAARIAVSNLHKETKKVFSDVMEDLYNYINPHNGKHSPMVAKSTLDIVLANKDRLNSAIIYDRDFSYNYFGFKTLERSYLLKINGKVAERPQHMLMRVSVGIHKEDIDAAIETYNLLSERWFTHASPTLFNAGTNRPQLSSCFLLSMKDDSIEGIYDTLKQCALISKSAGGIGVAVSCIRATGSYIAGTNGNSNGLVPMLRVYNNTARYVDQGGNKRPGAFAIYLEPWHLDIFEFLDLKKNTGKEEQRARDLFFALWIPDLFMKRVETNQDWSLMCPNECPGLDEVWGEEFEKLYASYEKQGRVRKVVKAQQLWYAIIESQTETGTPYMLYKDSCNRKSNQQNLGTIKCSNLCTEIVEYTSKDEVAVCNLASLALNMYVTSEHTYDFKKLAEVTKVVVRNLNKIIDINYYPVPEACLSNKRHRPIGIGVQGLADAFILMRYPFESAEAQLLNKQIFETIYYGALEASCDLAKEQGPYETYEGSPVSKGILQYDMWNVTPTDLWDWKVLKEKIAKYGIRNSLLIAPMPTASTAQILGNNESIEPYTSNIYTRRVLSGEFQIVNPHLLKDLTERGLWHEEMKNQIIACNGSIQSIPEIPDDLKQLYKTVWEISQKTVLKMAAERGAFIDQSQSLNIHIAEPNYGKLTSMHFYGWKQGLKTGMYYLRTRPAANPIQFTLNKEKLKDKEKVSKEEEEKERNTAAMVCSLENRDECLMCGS
# [9] = molecular target: nrdA/nrdB ribonucleotide reductase (Escherichia coli, UniProt P00452); details: negative effector at higher concentrations; cited from earlier work
# nrdA/nrdB ribonucleotide reductase, sequence (P69924 2-376): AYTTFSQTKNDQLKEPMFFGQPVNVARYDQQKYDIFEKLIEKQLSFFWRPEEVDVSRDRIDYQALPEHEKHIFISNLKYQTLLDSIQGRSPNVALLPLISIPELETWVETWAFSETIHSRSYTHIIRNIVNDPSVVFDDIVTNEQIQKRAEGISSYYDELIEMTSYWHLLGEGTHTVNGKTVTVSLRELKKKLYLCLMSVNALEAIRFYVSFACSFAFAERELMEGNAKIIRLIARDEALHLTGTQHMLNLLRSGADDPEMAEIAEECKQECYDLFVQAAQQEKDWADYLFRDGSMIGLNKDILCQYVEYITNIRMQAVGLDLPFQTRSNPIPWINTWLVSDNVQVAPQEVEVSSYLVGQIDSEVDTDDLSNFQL
# nrdA/nrdB ribonucleotide reductase, sequence (P00452 whole entry): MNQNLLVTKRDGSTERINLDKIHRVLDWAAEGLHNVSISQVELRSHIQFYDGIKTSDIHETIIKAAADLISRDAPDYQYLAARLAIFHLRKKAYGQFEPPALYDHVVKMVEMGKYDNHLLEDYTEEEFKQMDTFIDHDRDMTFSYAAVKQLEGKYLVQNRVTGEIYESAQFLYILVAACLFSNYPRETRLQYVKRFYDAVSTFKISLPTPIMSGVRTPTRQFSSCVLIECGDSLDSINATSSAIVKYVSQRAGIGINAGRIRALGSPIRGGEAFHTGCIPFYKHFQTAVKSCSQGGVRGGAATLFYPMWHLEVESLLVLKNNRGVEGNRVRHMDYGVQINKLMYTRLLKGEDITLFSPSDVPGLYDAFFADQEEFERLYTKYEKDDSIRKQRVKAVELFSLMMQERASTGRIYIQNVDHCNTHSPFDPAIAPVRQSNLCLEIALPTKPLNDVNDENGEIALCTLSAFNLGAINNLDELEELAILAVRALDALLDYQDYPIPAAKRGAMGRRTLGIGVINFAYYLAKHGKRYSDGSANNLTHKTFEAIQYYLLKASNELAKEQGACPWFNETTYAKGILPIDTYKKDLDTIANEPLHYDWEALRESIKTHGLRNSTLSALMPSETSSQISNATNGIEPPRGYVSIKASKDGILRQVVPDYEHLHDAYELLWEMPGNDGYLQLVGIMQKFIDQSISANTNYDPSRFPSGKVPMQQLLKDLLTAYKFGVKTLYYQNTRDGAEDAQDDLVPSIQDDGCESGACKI
# [10] = molecular target: T4, nrdE/nrdF ribonucleotide reductase (Salmonella typhimurium, UniProt Q08698); details: cited from earlier work
# T4 construct: host or cells: recombinant expression plasmid system (as reported)
# T4 sequence (P17424 whole entry): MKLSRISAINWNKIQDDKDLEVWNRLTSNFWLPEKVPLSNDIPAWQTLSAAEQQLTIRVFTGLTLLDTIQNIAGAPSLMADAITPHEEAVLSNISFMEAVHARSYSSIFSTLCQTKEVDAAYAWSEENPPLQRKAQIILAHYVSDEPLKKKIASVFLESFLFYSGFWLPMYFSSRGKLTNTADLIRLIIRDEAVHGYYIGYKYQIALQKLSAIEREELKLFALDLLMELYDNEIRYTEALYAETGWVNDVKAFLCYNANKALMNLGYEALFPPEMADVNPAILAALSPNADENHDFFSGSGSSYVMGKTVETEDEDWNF
# T4 sequence (Q08698 whole entry): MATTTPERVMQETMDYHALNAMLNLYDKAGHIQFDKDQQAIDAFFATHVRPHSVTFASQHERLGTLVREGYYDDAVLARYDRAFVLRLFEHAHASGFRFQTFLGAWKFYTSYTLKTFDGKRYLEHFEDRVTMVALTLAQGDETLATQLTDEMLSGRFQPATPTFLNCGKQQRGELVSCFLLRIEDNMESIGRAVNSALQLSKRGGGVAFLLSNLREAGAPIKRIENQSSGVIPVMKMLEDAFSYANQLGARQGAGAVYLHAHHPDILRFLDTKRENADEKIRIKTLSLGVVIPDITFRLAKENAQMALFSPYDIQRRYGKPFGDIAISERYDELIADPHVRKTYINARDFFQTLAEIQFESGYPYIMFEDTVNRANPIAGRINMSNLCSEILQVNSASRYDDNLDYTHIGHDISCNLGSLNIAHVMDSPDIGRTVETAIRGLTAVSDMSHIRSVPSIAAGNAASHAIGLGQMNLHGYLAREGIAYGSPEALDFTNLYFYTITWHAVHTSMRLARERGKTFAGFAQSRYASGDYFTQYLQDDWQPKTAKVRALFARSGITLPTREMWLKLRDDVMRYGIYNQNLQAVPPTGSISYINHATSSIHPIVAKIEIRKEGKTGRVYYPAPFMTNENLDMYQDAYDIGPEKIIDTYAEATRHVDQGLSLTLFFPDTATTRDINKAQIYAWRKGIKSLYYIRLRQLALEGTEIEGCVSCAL
# [11] = 5 mg reconstituted RR (1:1 R1 to R2-2), 6 mM CDP, 2 mM ATP, 0.0-0.5 mM inhibitor, read-out: IC50, inhibition of CDP reduction activity by C-terminal R2 peptides
# Salmonella ribonucleotide reductase, sequence (P17424 whole entry): as the sequence (P17424 whole entry) above
molecule,measurement,setting,value
NC(=O)NO [hydroxyurea],Growth of M. smegmatis,[1],completely inhibited
same,IC50,[2],~500 µM
same,IC50,"[3]; read-out: IC50, inhibition of the activity of CDP reduction by hydroxyurea",2000 µM
same,IC90,[4],1000 µM
"Ac-EDDDWDF-OH [R2P7-2, Acetyl-EDDDWDF-OH]",IC50,[3]; [11],15 to 20 µM
Nc1ncnc2c1ncn2[C@@H]1O[C@H](COP(=O)(O)OP(=O)(O)OP(=O)(O)O)[C@@H](O)[C@H]1O [ATP],"Labeling of the 84,000 Da band by [alpha-32P]dATP",[5],completely inhibited
same,Effect of ATP on DNA relaxing activity,[6]; 0.4-1.6 mM ATP,inhibited the reaction
same,Effect of nucleotide effector on ribonucleotide reductase activity of native enzyme,[7],stimulated
same,Concentration above which the effector inhibited the activity,[3],higher than 2 mM
same,Optimum concentration of activator for CDP reduction,[3],1 to 2 mM
same,Maximal stimulated ribonucleotide reduction (Example 2),[3],up to 45 pmoles deoxyribonucleotide in 20 min
same,Maximal stimulated CDP reduction,[3],up to 45 pmoles dCDP in 20 min
"Ac-TDTDWDF-OH [R2P7-1, Acetyl-TDTDWDF-OH]",IC50,[3]; [11],100 µM
Nc1ncnc2c1ncn2[C@H]1C[C@H](O)[C@@H](COP(=O)(O)OP(=O)(O)OP(=O)(O)O)O1 [dATP],dATP concentration above which inhibition is seen in the mammalian system,[8],greater than 0.1 mM
same,Effect of nucleotide effector on ribonucleotide reductase activity of native enzyme,[7],inhibited
same,Maximal stimulated ribonucleotide reduction (Example 2),[3],≤ 13 pmoles deoxyribonucleotide in 20 min
same,Maximal stimulated CDP reduction,[3],≤ 13 pmoles dCDP in 20 min
same,Highest concentration at which the effector still stimulated reduction,[3]; inhibition at higher concentrations,≤ 1 mM
same,"Concentration up to which dATP activates, nrdA/nrdB system",[9],up to 1 uM
same,"Concentration up to which dATP is a positive allosteric activator, nrdE/nrdF system",[10],up to 1 mM
NCCCCNCCCN [spermidine],DNA relaxing activity in the presence of spermidine,[6]; 4.0 mM spermidine,almost completely inhibited
